Data set [1] can be described thus: Solubility in water of salicylic acid, cyclodextrins and cyclodextrin inclusion complexes. Type of data set: physicochemical. The settings on record: complexed with cyclodextrin.
For data set [2] the following is noted: cited from earlier work.

`OCCOc1ccccc1` [phenoxyethanol]: the “solubility in complexed form (in words)” value in data set [1] is “more soluble in complexed form”. Consider `O=C(O)c1ccccc1O` [salicylic acid], for which the “solubility of salicylic acid in water” value in data set [2] (ambient temperatures, uncomplexed) is on record as “about 0.3%”. For the same molecule, in data set [2] (water or mixed aqueous solvent, starting value before complexation), the “solubility of S.A. in water or mixed aqueous solvent (uncomplexed)” value is reported as “about 0.3%”.

(Values after patent US5942501A, “Cyclodextrin derivative complex” (priority 1996, dated 1999).)
